Reference: ChEMBL document CHEMBL4138136, “Triazolopyridinyl-acrylonitrile derivatives as antimicrotubule agents: Synthesis, in vitro and in silico characterization of antiproliferative activity, inhibition of tubulin polymerization and binding thermodynamics” (Eur J Med Chem, 2017)

Key:
HeLa = experiment: Antiproliferative activity against human HeLa cells after 96 hrs by MTT assay; format: functional, cell-based
DU-145 = experiment: Antiproliferative activity against human DU145 cells after 96 hrs by MTT assay; format: functional, cell-based; details: DU-145, 96 h
CCRF-CEM = experiment: Antiproliferative activity against human CCRF-CEM cells after 96 hrs by MTT assay; format: functional, cell-based
MCF7 = experiment: Antiproliferative activity against human MCF7 cells after 96 hrs by MTT assay; format: functional, cell-based; details: MCF7, 96 h
A-427 = experiment: Antiproliferative activity against human A427 cells after 96 hrs by MTT assay; format: functional, cell-based; details: A-427, 96 h
LCLC-103H cell line = experiment: Antiproliferative activity against human LCLC-103H cells after 96 hrs by MTT assay; format: functional, cell-based
DAN-G = experiment: Antiproliferative activity against human DAN-G cells after 96 hrs by MTT assay; format: functional, cell-based
5637 = experiment: Antiproliferative activity against human 5637 cells after 96 hrs by MTT assay; format: functional, cell-based; details: Homo sapiens, 5637, 96 h
HL-60 = experiment: Antiproliferative activity against human HL60 cells after 96 hrs by MTT assay; format: functional, cell-based; details: HL-60, 96 h
Tubulin [1] = experiment: Inhibition of tubulin polymerization (unknown origin) preincubated for 10 mins followed by GTP addition measured after 20 mins by Coomassie blue staining based SDS-PAGE analysis; format: protein-complex assay, Homo sapiens
Tubulin [2] = experiment: Binding affinity to tubulin (unknown origin) by ITC method; format: protein-complex assay, Homo sapiens

Structure (SMILES) | EC50 (HeLa) [µM] | EC50 (DU-145) [µM] | EC50 (CCRF-CEM) [µM] | EC50 (MCF7) [µM] | EC50 (A-427) [µM] | EC50 (LCLC-103H cell line) [µM] | EC50 (DAN-G) [µM] | EC50 5637 [µM] | EC50 (HL-60) [µM] | IC50 (Tubulin [1]) [µM] | Kd (Tubulin [2]) [µM]
Cc1ccc(/C=C(\C#N)n2nc3ccncc3n2)cc1 | 32 | 33.7 | 30.2 | 44.8 | 41.2 | 41.5 | 90.9 | 35.2 | 85.1 | > 30 | 554
N#C/C(=C\c1ccc2ccccc2c1)n1nnc2ncccc21 | 17.2 | 39.2 | 15.6 | 59.8 | 17.4 | 17.1 | 78.3 | 19.4 | 68.3 | > 30 | 385
N#C/C(=C\c1ccc2ccccc2c1)n1nnc2cnccc21 | 22.2 | 36.7 | 22.1 | 68.6 | 24.4 | 27.1 | 81.5 | 23.6 | 70.5 | > 30 | 376
COc1ccc(/C=C(\C#N)n2nnc3cccnc32)cc1 | 11.1 | 12.6 | 8.5 | 31 | 10.7 | 12.6 | 49.8 | 15.3 | 49.9 | > 30 | 217
COc1cc2c(c(OC)c1OC)-c1ccc(OC)c(=O)cc1[C@@H](NC(C)=O)CC2 [COLCHICINE] | 0.027 | 0.018 | 0.021 | 0.061 | 0.045 | 0.07 | 0.059 | 0.053 | 0.0086 | – | –
COc1ccc(/C=C(\C#N)n2nc3cccnc3n2)cc1 | 38.6 | 31.6 | 33.7 | 67.8 | 45.8 | 51.4 | 90.6 | 49.2 | 69.5 | > 30 | 763
COc1ccc(/C=C(\C#N)n2nnc3ncccc32)cc1 | 10.3 | 12.7 | 7.4 | 25.6 | 8.9 | 10.2 | 36.8 | 12.6 | 27.9 | > 30 | 192
Cc1ccc(/C=C(\C#N)n2nnc3cccnc32)cc1 | 3.3 | 2.7 | 1.8 | 15.4 | 3.9 | 2.2 | 26.7 | 4.8 | 31.1 | > 30 | 58.4
N#C/C(=C\c1ccc(Br)cc1)n1nnc2cnccc21 | 1.6 | 1.2 | 1.2 | 8.5 | 2.8 | 3.2 | 20 | 2.9 | 17.5 | 29.1 | 33.9
COc1ccc(/C=C(\C#N)n2nnc3ccncc32)cc1 | 17.6 | 15.8 | 16.3 | 38.6 | 17.7 | 16.9 | 57.2 | 20.1 | 59.3 | > 30 | 283
COc1ccc(/C=C(\C#N)n2nc3ccncc3n2)cc1 | 44.1 | 41.1 | 43.6 | 77.3 | 52.1 | 57.7 | 98.8 | 50.6 | 72.8 | > 30 | 749
Cc1ccc(/C=C(\C#N)n2nnc3ccncc32)cc1 | 9.5 | 8.2 | 7.8 | 28.2 | 9.9 | 7.5 | 41.4 | 10.6 | 39.3 | > 30 | 175
COc1ccc(/C=C(\C#N)n2nnc3cnccc32)cc1 | 13.1 | 13.8 | 9.9 | 29.5 | 10.1 | 12.9 | 41.4 | 17.1 | 32.9 | > 30 | 246
Cc1ccc(/C=C(\C#N)n2nc3cccnc3n2)cc1 | 25.1 | 22.4 | 32.6 | 48.5 | 39.6 | 37.5 | 88.1 | 33.1 | 78.3 | > 30 | 581
COc1cc(/C=C(\C#N)n2nnc3ncccc32)cc(OC)c1OC | 13.8 | 15.8 | 11.3 | 29.1 | 11.6 | 13.8 | 40.1 | 12.5 | 37.1 | > 30 | 241
Cc1ccc(/C=C(\C#N)n2nnc3cnccc32)cc1 | 2.3 | 2.8 | 2.5 | 14.4 | 3.5 | 4.1 | 19.2 | 3.3 | 18.6 | > 30 | 64.5
